Measurements as given in BigSolDB 2.1.

ClCc1ccc(Cl)nc1
Details | solubility (mole fraction)
in acetone, 278.85 K | 0.0226
in acetone, 281.75 K | 0.0249
in acetone, 283.55 K | 0.0267
in acetone, 284.65 K | 0.0278
in acetone, 288.95 K | 0.0325
in acetone, 291.15 K | 0.0353
in acetone, 293.65 K | 0.0385
in acetone, 295.85 K | 0.0415
in acetone, 297.65 K | 0.0442
in acetone, 300.35 K | 0.0486
in acetone, 302.95 K | 0.0528
in acetone, 304.85 K | 0.0566
in acetone, 307.05 K | 0.0604
in chloroform, 275.85 K | 0.0164
in chloroform, 279.35 K | 0.0204
in chloroform, 281.55 K | 0.0235
in chloroform, 284.35 K | 0.028
in chloroform, 287.45 K | 0.0339
in chloroform, 290.35 K | 0.0405
in chloroform, 292.95 K | 0.0473
in chloroform, 295.25 K | 0.0546
in chloroform, 297.65 K | 0.063
in chloroform, 298.55 K | 0.0665
in chloroform, 300.45 K | 0.0745
in chloroform, 302.75 K | 0.0858
in chloroform, 306.95 K | 0.109
in ethanol, 277.65 K | 0.00332
in ethanol, 279.75 K | 0.00365
in ethanol, 282.05 K | 0.00406
in ethanol, 284.75 K | 0.00456
in ethanol, 287.35 K | 0.00521
in ethanol, 289.65 K | 0.00576
in ethanol, 292.65 K | 0.00661
in ethanol, 295.35 K | 0.00749
in ethanol, 298.35 K | 0.00859
in ethanol, 301.85 K | 0.0102
in ethanol, 304.15 K | 0.0112
in ethanol, 305.85 K | 0.012
in ethanol, 307.25 K | 0.0127
in ethyl acetate, 278.35 K | 0.00447
in ethyl acetate, 280.05 K | 0.00488
in ethyl acetate, 281.65 K | 0.0053
in ethyl acetate, 284.75 K | 0.00619
in ethyl acetate, 286.25 K | 0.00667
in ethyl acetate, 288.15 K | 0.00731
in ethyl acetate, 290.45 K | 0.00825
in ethyl acetate, 292.95 K | 0.00939
in ethyl acetate, 296.15 K | 0.011
in ethyl acetate, 299.05 K | 0.0125
in ethyl acetate, 302.95 K | 0.0153
in ethyl acetate, 305.35 K | 0.0167
in ethyl acetate, 306.45 K | 0.0176
in ethyl acetate, 307.45 K | 0.0184
in methanol, 277.25 K | 0.00235
in methanol, 281.35 K | 0.00277
in methanol, 282.75 K | 0.00296
in methanol, 284.35 K | 0.00319
in methanol, 288.85 K | 0.00392
in methanol, 292.75 K | 0.00468
in methanol, 296.05 K | 0.00537
in methanol, 299.25 K | 0.00607
in methanol, 303.75 K | 0.00722
in methanol, 305.35 K | 0.00768
in methanol, 306.55 K | 0.00803
in toluene, 278.75 K | 0.0191
in toluene, 281.55 K | 0.0249
in toluene, 283.25 K | 0.0293
in toluene, 287.35 K | 0.043
in toluene, 288.15 K | 0.0464
in toluene, 290.75 K | 0.059
in toluene, 292.15 K | 0.0671
in toluene, 293.75 K | 0.0776
in toluene, 295.45 K | 0.0906
in toluene, 297.75 K | 0.111
in toluene, 301.65 K | 0.158
in toluene, 305.55 K | 0.223
in water, 277.75 K | 0.000167
in water, 280.25 K | 0.000174
in water, 283.75 K | 0.000197
in water, 288.35 K | 0.000215
in water, 292.15 K | 0.000234
in water, 294.25 K | 0.000249
in water, 297.65 K | 0.000265
in water, 301.25 K | 0.000288
in water, 302.95 K | 0.000295
in water, 304.25 K | 0.000308
in water, 305.85 K | 0.00032
in water, 308.75 K | 0.000332
in water, 309.15 K | 0.00034
